{
  "source": "patent US10179782B2",
  "about": "“Substituted sulfonamide compounds” (Genentech, Inc., priority 2016, dated 2019)",
  "data": [
    {"molecular_target": "T1, human TRPA1 (Homo sapiens, UniProt O75762)", "T1 construct": "expressed in transfected cells; host or cells: CHO cells", "T1 sequence (O75762 whole entry)": "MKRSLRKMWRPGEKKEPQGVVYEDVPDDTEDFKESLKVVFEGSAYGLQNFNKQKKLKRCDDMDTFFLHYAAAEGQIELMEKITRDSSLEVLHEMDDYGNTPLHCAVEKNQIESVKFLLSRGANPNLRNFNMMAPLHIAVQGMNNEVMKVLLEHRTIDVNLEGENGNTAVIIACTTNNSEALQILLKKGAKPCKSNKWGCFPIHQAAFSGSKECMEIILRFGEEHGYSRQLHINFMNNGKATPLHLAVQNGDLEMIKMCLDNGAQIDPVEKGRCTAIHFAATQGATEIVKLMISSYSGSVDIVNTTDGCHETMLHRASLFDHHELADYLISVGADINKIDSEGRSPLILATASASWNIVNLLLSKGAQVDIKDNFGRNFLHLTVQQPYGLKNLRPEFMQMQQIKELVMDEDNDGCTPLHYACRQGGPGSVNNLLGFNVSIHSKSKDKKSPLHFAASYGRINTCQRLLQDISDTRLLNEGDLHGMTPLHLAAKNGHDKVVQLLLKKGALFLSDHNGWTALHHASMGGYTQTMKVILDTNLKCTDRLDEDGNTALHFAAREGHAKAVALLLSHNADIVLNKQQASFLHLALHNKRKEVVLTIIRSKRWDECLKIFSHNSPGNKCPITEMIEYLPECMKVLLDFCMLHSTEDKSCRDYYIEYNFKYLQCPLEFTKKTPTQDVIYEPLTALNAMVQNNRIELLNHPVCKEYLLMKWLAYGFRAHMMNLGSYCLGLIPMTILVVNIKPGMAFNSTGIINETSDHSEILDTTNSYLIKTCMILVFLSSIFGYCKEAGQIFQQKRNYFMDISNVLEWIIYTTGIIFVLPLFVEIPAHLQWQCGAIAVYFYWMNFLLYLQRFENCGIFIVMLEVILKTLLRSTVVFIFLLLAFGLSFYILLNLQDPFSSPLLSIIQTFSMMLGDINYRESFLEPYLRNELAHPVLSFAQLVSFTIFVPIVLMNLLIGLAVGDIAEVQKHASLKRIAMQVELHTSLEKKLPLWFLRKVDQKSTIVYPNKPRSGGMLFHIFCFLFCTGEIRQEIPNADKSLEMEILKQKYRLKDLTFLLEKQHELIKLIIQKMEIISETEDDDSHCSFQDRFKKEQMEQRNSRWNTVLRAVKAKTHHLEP", "assay": "TRPA1 FLIPR Tetra calcium influx assay in CHO cells (block of cinnamaldehyde-induced calcium influx)", "assay_type": "cell-based", "details": "Table 2; CHO cells expressing TRPA1; agonist cinnamaldehyde 75 uM; 20 min compound incubation; Hill coefficient fixed to 1.5; read-out: hTRPA1 CHO Ca2+ AUC EVO (IC50)", "outline": "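CHO cells expressing TRPA1 were loaded with calcium dye in HBSS/20 mM HEPES, pH 7.4, 0.02% BSA, then given compound for 20 min at room temperature before ~EC80 cinnamaldehyde (75 µM human, 45 µM rat). Block of calcium influx was read on FLIPR Tetra; IC50 fitted with Hill coefficient fixed at 1.5.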", "units": {"IC50": "nM"}, "values": [
      {"smiles": "O=C(NCc1cc(-c2cnc(C(F)(F)F)nc2)ncc1Cl)[C@@H]1[C@H]2C[C@H]2CN1S(=O)(=O)c1ccc(F)cc1", "note": "[Example 63, (1S,2S,5R)-N-[[5-chloro-2-[2-(trifluoromethyl)pyrimidin-5-yl]-4-pyridyl]methyl]-3-(4-fluorophenyl)sulfonyl-3-azabicyclo[3.1.0]hexane-2-carboxamide]", "IC50": 6.16},
      {"smiles": "N#Cc1cc(F)c(-c2cnc(C(F)(F)F)nc2)cc1CNC(=O)[C@@H]1C[C@@H](F)CN1S(=O)(=O)c1ccc(F)cc1", "note": "[Example 64, (2S,4R)-N-[[2-cyano-4-fluoro-5-[2-(trifluoromethyl)pyrimidin-5-yl]phenyl]methyl]-4-fluoro-1-(4-fluorophenyl)sulfonyl-pyrrolidine-2-carboxamide]", "IC50": 44.5},
      {"smiles": "O=C(NCc1cc(-c2cnc(C(F)(F)F)nc2)ncn1)[C@@H]1[C@H]2C[C@H]2CN1S(=O)(=O)c1ccc(F)cc1", "note": "[Example 65, (1S,2S,5R)-3-(4-fluorophenyl)sulfonyl-N-[[6-[2-(trifluoromethyl)pyrimidin-5-yl]pyrimidin-4-yl]methyl]-3-azabicyclo[3.1.0]hexane-2-carboxamide]", "IC50": 64.8},
      {"smiles": "CCc1cc(CNC(=O)[C@@H]2C[C@@H](F)CN2S(=O)(=O)c2ccc(F)cc2)cc(-c2cnc(C(F)(F)F)nc2)n1", "note": "[Example 66, (2S,4R)-N-[[2-ethyl-6-[2-(trifluoromethyl)pyrimidin-5-yl]-4-pyridyl]methyl]-4-fluoro-1-(4-fluorophenyl)sulfonyl-pyrrolidine-2-carboxamide]", "IC50": 76.9},
      {"smiles": "O=C(NCc1cc(-c2cnc(C(F)(F)F)nc2)nc(C2CC2)c1)[C@@H]1C[C@@H](F)CN1S(=O)(=O)c1ccc(F)cc1", "note": "[Example 67, (2S,4R)-N-[[2-cyclopropyl-6-[2-(trifluoromethyl)pyrimidin-5-yl]-4-pyridyl]methyl]-4-fluoro-1-(4-fluorophenyl)sulfonyl-pyrrolidine-2-carboxamide]", "IC50": 65.1},
      {"smiles": "O=C(NCc1ccc(F)c(-c2cnc(C(F)(F)F)nc2)c1)[C@@H]1[C@@H]2[C@H](CN1S(=O)(=O)c1ccc(F)cc1)C2(F)F", "note": "[Example 69, (1R,4S,5S)-6,6-difluoro-3-(4-fluorophenyl)sulfonyl-N-[[4-fluoro-3-[2-(trifluoromethyl)pyrimidin-5-yl]phenyl]methyl]-3-azabicyclo[3.1.0]hexane-4-carboxamide]", "IC50": 45.7},
      {"smiles": "O=C(NCc1cc(-c2cnc(C(F)(F)F)nc2)ncc1F)[C@@H]1[C@@H]2[C@H](CN1S(=O)(=O)c1ccc(F)cc1)C2(F)F", "note": "[Example 71, (1S,2S,5R)-6,6-difluoro-N-((5-fluoro-2-(2-(trifluoromethyl)pyrimidin-5-yl)pyridin-4-yl)methyl)-3-((4-fluorophenyl)sulfonyl)-3-azabicyclo[3.1.0]hexane-2-carboxamide]", "IC50": 46.2},
      {"smiles": "CC1(C)[C@@H]2[C@@H](C(=O)NCc3cc(-c4cnc(C(F)(F)F)nc4)ncc3F)N(S(=O)(=O)c3ccc(F)cc3)C[C@@H]21", "note": "[Example 72, (1S,4S,5R)-3-(4-fluorophenyl)sulfonyl-N-[[5-fluoro-2-[2-(trifluoromethyl)pyrimidin-5-yl]-4-pyridyl]methyl]-6,6-dimethyl-3-azabicyclo[3.1.0]hexane-4-carboxamide]", "IC50": 14.7},
      {"smiles": "O=C(NCc1cc(-c2cnc(C(F)(F)F)nc2)nc(C2CC2)n1)[C@@H]1C[C@@H](F)CN1S(=O)(=O)c1ccc(F)cc1", "note": "[Example 73, (2S,4R)-N-[[2-cyclopropyl-6-[2-(trifluoromethyl)pyrimidin-5-yl]pyrimidin-4-yl]methyl]-4-fluoro-1-(4-fluorophenyl)sulfonyl-pyrrolidine-2-carboxamide]", "IC50": 56.7},
      {"smiles": "O=C(NCc1cc(-c2cnc(C(F)(F)F)nc2)c(F)cc1F)[C@@H]1C[C@@H](F)CN1S(=O)(=O)c1ccc(F)cc1", "note": "[Example 74, (2S,4R)-N-[[2,4-difluoro-5-[2-(trifluoromethyl)pyrimidin-5-yl]phenyl]methyl]-4-fluoro-1-(4-fluorophenyl)sulfonyl-pyrrolidine-2-carboxamide]", "IC50": 65.1},
      {"smiles": "C[C@@]1(F)C[C@@H](C(=O)NCc2cc(Cl)nc(-c3cnc(C(F)(F)F)nc3)c2)N(S(=O)(=O)c2ccc(F)cc2)C1", "note": "[Example 75, (2S,4R)-N-[[2-chloro-6-[2-(trifluoromethyl)pyrimidin-5-yl]-4-pyridyl]methyl]-4-fluoro-1-(4-fluorophenyl)sulfonyl-4-methyl-pyrrolidine-2-carboxamide]", "IC50": 66.6},
      {"smiles": "O=C(NCc1cc(-c2cnc(C(F)(F)F)nc2)cc(F)c1F)[C@@H]1C[C@@H](F)CN1S(=O)(=O)c1ccc(F)cc1", "note": "[Example 76, (2S,4R)-N-[[2,3-difluoro-5-[2-(trifluoromethyl)pyrimidin-5-yl]phenyl]methyl]-4-fluoro-1-(4-fluorophenyl)sulfonyl-pyrrolidine-2-carboxamide]", "IC50": 39.3},
      {"smiles": "O=C(NCc1ccc(F)c(-c2cnc(C(F)(F)F)s2)c1)[C@@H]1C[C@@H](F)CN1S(=O)(=O)c1ccc(F)cc1", "note": "[Example 77, (2S,4R)-4-fluoro-1-(4-fluorophenyl)sulfonyl-N-[[4-fluoro-3-[2-(trifluoromethyl)thiazol-5-yl]phenyl]methyl]pyrrolidine-2-carboxamide]", "IC50": 73.3},
      {"smiles": "CC1(C)[C@@H]2[C@@H](C(=O)NCc3ccc(F)c(-c4cnc(C(F)(F)F)nc4)c3)N(S(=O)(=O)c3ccc(F)cc3)C[C@@H]21", "note": "[Example 78, (1S,4S,5R)-3-(4-fluorophenyl)sulfonyl-N-[[4-fluoro-3-[2-(trifluoromethyl)pyrimidin-5-yl]phenyl]methyl]-6,6-dimethyl-3-azabicyclo[3.1.0]hexane-4-carboxamide]", "IC50": 23.4},
      {"smiles": "COC[C@H]1CC[C@@H](C(=O)NCc2cc(-c3cnc(C(F)(F)F)nc3)ncc2F)N1S(=O)(=O)c1ccc(F)cc1", "note": "[Example 80, (2S,5R)-N-((5-fluoro-2-(2-(trifluoromethyl)pyrimidin-5-yl)pyridin-4-yl)methyl)-1-((4-fluorophenyl)sulfonyl)-5-(methoxymethyl)pyrrolidine-2-carboxamide]", "IC50": 98.2},
      {"smiles": "C[C@H]1[C@H](F)C[C@@H](C(=O)NCc2cc(N3CC(OC(F)(F)F)C3)nc(C3CC3)n2)N1S(=O)(=O)c1ccc(F)cc1", "note": "[Example 81, (2S,4R,5S)-N-[[2-cyclopropyl-6-[3-(trifluoromethoxy)azetidin-1-yl]pyrimidin-4-yl]methyl]-4-fluoro-1-(4-fluorophenyl)sulfonyl-5-methyl-pyrrolidine-2-carboxamide]", "IC50": 55.3},
      {"smiles": "C[C@H]1[C@H](F)C[C@@H](C(=O)NCc2cc(OCCOC(F)(F)F)c(F)cn2)N1S(=O)(=O)c1ccc(F)cc1", "note": "[Example 82, (2S,4R,5S)-4-fluoro-1-(4-fluorophenyl)sulfonyl-N-[[5-fluoro-4-[2-(trifluoromethoxy)ethoxy]-2-pyridyl]methyl]-5-methyl-pyrrolidine-2-carboxamide]", "IC50": 166},
      {"smiles": "C[C@H]1[C@H](F)C[C@@H](C(=O)NCc2cc(OCC3(C(F)(F)F)CC3)nc(C3CC3)n2)N1S(=O)(=O)c1ccc(F)cc1", "note": "[Example 83, (2S,4R,5S)-N-[[2-cyclopropyl-6-[[1-(trifluoromethyl)cyclopropyl]methoxy]pyrimidin-4-yl]methyl]-4-fluoro-1-(4-fluorophenyl)sulfonyl-5-methyl-pyrrolidine-2-carboxamide]", "IC50": 147},
      {"smiles": "C[C@H]1[C@H](C#N)C[C@@H](C(=O)NCc2cc(-c3cnc(C(F)(F)F)nc3)ncc2F)N1S(=O)(=O)c1ccc(F)cc1", "note": "[Example 84, (2S,4R,5S)-4-cyano-1-(4-fluorophenyl)sulfonyl-N-[[5-fluoro-2-[2-(trifluoromethyl)pyrimidin-5-yl]-4-pyridyl]methyl]-5-methyl-pyrrolidine-2-carboxamide]", "IC50": 65.3},
      {"smiles": "C[C@H]1[C@H](F)C[C@@H](C(=O)NCc2cc(-c3cnc(C(F)(F)F)s3)c(F)cn2)N1S(=O)(=O)c1ccc(F)cc1", "note": "[Example 85, (2S,4R,5S)-4-fluoro-1-(4-fluorophenyl)sulfonyl-N-[[5-fluoro-4-[2-(trifluoromethyl)thiazol-5-yl]-2-pyridyl]methyl]-5-methyl-pyrrolidine-2-carboxamide]", "IC50": 33.7},
      {"smiles": "C[C@H]1[C@H](F)C[C@@H](C(=O)NCc2cc(-c3cnc(C(F)(F)F)nc3)c(C#N)cn2)N1S(=O)(=O)c1ccc(F)cc1", "note": "[Example 86, (2S,4R,5S)-N-[[5-cyano-4-[2-(trifluoromethyl)pyrimidin-5-yl]-2-pyridyl]methyl]-4-fluoro-1-(4-fluorophenyl)sulfonyl-5-methyl-pyrrolidine-2-carboxamide]", "IC50": 124},
      {"smiles": "C[C@H]1[C@H](F)C[C@@H](C(=O)NCc2cc(-c3cnc(C(F)(F)F)cn3)ncn2)N1S(=O)(=O)c1ccc(F)cc1", "note": "[Example 87, (2S,4R,5S)-4-fluoro-1-(4-fluorophenyl)sulfonyl-5-methyl-N-[[6-[5-(trifluoromethyl)pyrazin-2-yl]pyrimidin-4-yl]methyl]pyrrolidine-2-carboxamide]", "IC50": 184},
      {"smiles": "C[C@H]1[C@H](F)C[C@@H](C(=O)NCc2cc(C3CCN(CC(F)(F)F)CC3)ncc2F)N1S(=O)(=O)c1ccc(F)cc1", "note": "[Example 88, (2S,4R,5S)-4-fluoro-1-(4-fluorophenyl)sulfonyl-N-[[5-fluoro-2-[1-(2,2,2-trifluoroethyl)-4-piperidyl]-4-pyridyl]methyl]-5-methyl-pyrrolidine-2-carboxamide]", "IC50": 42.3},
      {"smiles": "C[C@H]1[C@H](F)C[C@@H](C(=O)NCc2cc(-c3cnc(C(F)(F)F)nc3)ncc2F)N1S(=O)(=O)c1ccc(Br)cc1", "note": "[Example 89, (2S,4R,5S)-1-(4-bromophenyl)sulfonyl-4-fluoro-N-[[5-fluoro-2-[2-(trifluoromethyl)pyrimidin-5-yl]-4-pyridyl]methyl]-5-methyl-pyrrolidine-2-carboxamide]", "IC50": 7.08},
      {"smiles": "C[C@H]1[C@H](F)C[C@@H](C(=O)NCc2cc(-c3cnc(C(F)(F)F)nc3)ncc2F)N1S(=O)(=O)c1ccc(Cl)cc1", "note": "[Example 90]", "IC50": 2.5}
    ]}
  ]
}
